# Measurements from patent US20050037923A1, “Herbicidal mixture based on 7-pyrazolybenzoxazoles” (BASF Aktiengesellschaft, priority 2001, published 2005).
# What was measured:
# COMBE = experiment: Greenhouse test, post-emergence herbicidal action; format: in vivo, tropical spiderwort; conditions: 21 days
# Description: (§1) For the post-emergence treatment, the test plants were first grown to a height of 3 to 20 cm, depending on the plant habit, and only then treated. Here, the herbicidal compositions were suspended or emulsified in water as distribution medium and sprayed using finely distributing nozzles.
# (§2) The respective components A and B and/or C were formulated as 10% by weight strength emulsion concentrate and introduced to the spray liquor with the amount of solvent system used for applying the active compound. In the examples, the solvent used was water.
# (§3) The test period extended over 21 days. During this time, the plants were tended, and their response to the treatments with active compound was evaluated.
# (§4) The evaluation for the damage caused by the chemical compositions was carried out using a scale from 0 to 100%, compared to the untreated control plants. Here, 0 means no damage and 100 means complete destruction of the plants.
# (§5) In the examples below, the value E which is to be expected if the activity of the individual active compounds is just additive was calculated using the method of S. R. Colby (1967) “Calculating synergistic and antagonistic responses of herbicide combinations”, Weeds 15, p. 22 ff. E=X+Y—(X·Y/100) where • X=effect in percent using active compound A at an application rate a; • Y=effect in percent using active compound B at an application rate b; • E=expected effect (in %) of A+B at application rates a+b.
# (§6) The plants used in the greenhouse experiments were of the following species: […]
# POLPE = experiment: Greenhouse test, post-emergence herbicidal action; format: in vivo, ladysthumb
# Description: as §1, §2, §3, §4, §5, §6
# BIDPI = experiment: Greenhouse test, post-emergence herbicidal action; format: in vivo, hairy beggarticks
# Description: as §1, §2, §3, §4, §5, §6
# ECHCG = experiment: Greenhouse test, post-emergence herbicidal action; format: in vivo, barnyardgrass
# Description: as §1, §2, §3, §4, §5, §6
# GALAP = experiment: Greenhouse test, post-emergence herbicidal action; format: in vivo, catchweed bedstraw
# Description: as §1, §2, §3, §4, §5, §6
# AVEFA = experiment: Greenhouse test, post-emergence herbicidal action; format: in vivo, wild oat
# Description: as §1, §2, §3, §4, §5, §6
# THLAR = experiment: Greenhouse test, pre-emergence herbicidal action; format: in vivo, fanweed; conditions: application rate 250 g/ha
# Description: For the pre-emergence treatment, the test plants were sown is pots 1-2 days later, i.e. prior to germination, the pots were sprayed with the finely distributed herbicidal compositions, which had been suspended in water.
# as §2, §3, §4, §5, §6
# SETVI = experiment: Greenhouse test, post-emergence herbicidal action; format: in vivo, green foxtail; conditions: application rate 15.63 g/ha
# Description: as §1, §2, §3, §4, §5, §6
# SETFA = experiment: Greenhouse test, post-emergence herbicidal action; format: in vivo, giant foxtail; conditions: 21 days
# Description: as §1, §2, §3, §4, §5, §6
# [1] = application rate 15.63 g/ha, 21 days
# [2] = application rate 31.25 g/ha, 21 days
# [3] = application rate 125 g/ha (Example 32)
# [4] = application rate 250 g/ha (Example 32)
# [5] = application rate 7.81 g/ha, 21 days
# [6] = application rate 62.5 g/ha (Example 24)
# [7] = application rate 125 g/ha (Example 24)
structure (smiles),measurement,setting,value
"Cc1cnc(C2=NC(=O)C(C)(C(C)C)N2)c(C(=O)O)c1 (centres unmarked) [imazapic, reference compound]","Herbicidal action against COMBE, Found",COMBE; application rate 15.63 g/ha,0%
same,"Herbicidal action against COMBE, Found",COMBE; application rate 31.25 g/ha,40%
same,"Herbicidal action against POLPE, Found",POLPE; [1],75%
same,"Herbicidal action against POLPE, Found",POLPE; [2],80%
"CCc1cnc(C2=NC(C)(C(C)C)C(=O)N2)c(C(=O)O)c1 (centres unmarked) [imazethapyr, reference compound]","Herbicidal action against COMBE, Found",COMBE; application rate 15.63 g/ha,20%
same,"Herbicidal action against COMBE, Found",COMBE; application rate 31.25 g/ha,40%
same,"Herbicidal action against POLPE, Found",POLPE; [1],40%
same,"Herbicidal action against POLPE, Found",POLPE; [2],60%
CC(C)c1ccc(NC(=O)N(C)C)cc1 [isoproturon],"Herbicidal action against BIDPI, Found",BIDPI; application rate 62.5 g/ha,30%
same,"Herbicidal action against BIDPI, Found",BIDPI; application rate 125 g/ha,60%
CCC(C)(CC)c1cc(NC(=O)c2c(OC)cccc2OC)on1 [isoxaben],"Herbicidal action against ECHCG, Found",ECHCG; [3],0%
same,"Herbicidal action against ECHCG, Found",ECHCG; [4],0%
same,"Herbicidal action against GALAP, Found",GALAP; [3],0%
same,"Herbicidal action against GALAP, Found",GALAP; [4],0%
CS(=O)(=O)c1ccc(C(=O)C2C(=O)CCCC2=O)c([N+](=O)[O-])c1 [mesotrione],"Herbicidal action against ECHCG, Found",ECHCG; application rate 7.81 g/ha,45%
same,"Herbicidal action against ECHCG, Found",ECHCG; application rate 15.63 g/ha,70%
COc1cc(OC)nc(NC(=O)NS(=O)(=O)c2ncccc2C(=O)N(C)C)n1 [nicosulfuron],"Herbicidal action against BIDPI, Found",BIDPI; application rate 3.91 g/ha (Example 26),70%
same,"Herbicidal action against BIDPI, Found",BIDPI; application rate 7.81 g/ha (Example 26),80%
C[n+]1ccc(-c2cc[n+](C)cc2)cc1 [paraquat],"Herbicidal action against AVEFA, Found",AVEFA; application rate 62.5 g/ha,70%
same,"Herbicidal action against AVEFA, Found",AVEFA; application rate 125 g/ha,80%
CCC(CC)Nc1c([N+](=O)[O-])cc(C)c(C)c1[N+](=O)[O-] [pendimethalin],"Herbicidal action against THLAR, Found",THLAR,40%
O=C(Nc1ccc(F)cc1)c1cccc(Oc2cccc(C(F)(F)F)c2)n1 [picolinafen],"Herbicidal action against SETVI, Found",SETVI,40%
"CCCC(=NOCC(C)Oc1ccc(Cl)cc1)C1=C(O)CC(C2CCCSC2)CC1=O (centres unmarked) [profoxydim, reference compound]","Herbicidal action against GALAP, Found",GALAP; [5],30%
same,"Herbicidal action against GALAP, Found",GALAP; [1],30%
CCCOc1nn(C(=O)[N-]S(=O)(=O)c2ccccc2C(=O)OC)c(=O)n1C.[Na+] [propoxycarbazone sodium salt],"Herbicidal action against BIDPI, Found",BIDPI; application rate 3.91 g/ha (Example 27),30%
same,"Herbicidal action against BIDPI, Found",BIDPI; application rate 7.81 g/ha (Example 27),40%
"CCOC(=O)c1cnn(C)c1S(=O)(=O)NC(=O)Nc1nc(OC)cc(OC)n1 [pyrazosulfuron-ethyl, reference compound]","Herbicidal action against AVEFA, Found",AVEFA; [1],0%
same,"Herbicidal action against AVEFA, Found",AVEFA; [2],10%
same,"Herbicidal action against POLPE, Found",POLPE; [1],40%
same,"Herbicidal action against POLPE, Found",POLPE; [2],55%
O=C(O)c1c(Cl)ccc2cc(Cl)cnc12 [quinclorac],"Herbicidal action against ECHCG, Found",ECHCG; [6],10%
same,"Herbicidal action against ECHCG, Found",ECHCG; [7],10%
same,"Herbicidal action against POLPE, Found",POLPE; [6],15%
same,"Herbicidal action against POLPE, Found",POLPE; [7],15%
"CC/C(=N\OC/C=C/Cl)C1=C(O)CC(C2CCOCC2)CC1=O (centres unmarked) [tepraloxydim, reference compound]","Herbicidal action against AVEFA, Found",AVEFA; [5],70%
same,"Herbicidal action against AVEFA, Found",AVEFA; [1],80%
same,"Herbicidal action against SETFA, Found",SETFA; application rate 7.81 g/ha,70%
same,"Herbicidal action against SETFA, Found",SETFA; application rate 15.63 g/ha,80%
